Data set [1] concerns HuT-78 (T cell lymphoma) cells. As to the kind of experiment: Anti-proliferative assay (CellTiter-Glo), HuT-78. The format is cell-based. The following applies: Homo sapiens, HuT78, 144 h, six days incubation. As for the experimental part: (§1) Selected compounds are evaluated for their anti-proliferative activity against human cutaneous T-cell lymphoma and multiple myeloma cell lines.
(§2) HuT-78 (T cell lymphoma) cells or JJN3 (multiple myeloma) cells are cultured in RPMI-1640 with 10% FBS and 1% penicillin/streptomycin. 45 μL suspensions of cells are transferred to the wells of 384-well plate for a density of 1,000 cells per well. The plates are incubated overnight at 37° C. under 5% CO2 atmosphere. Test compounds are dissolved in 100% DMSO at a 2 mM concentration, then diluted 20× in assay medium for to provide a 5% DMSO concentration and 100 μM compound concentration. 5 μL of this compound solution is added to the 45 μL cell suspension in the assay plate for a top plate concentration of 10 μM and 0.5% DMSO concentration. For positive controls, 10 μM APY0201 is added instead of the compound solution. After spinning at 1000 rpm for 1 minutes, the cell plate is placed in the incubator […] at 37° C. under 5% CO2 atmosphere. After incubation for six days, the cell plate is equilibrated to room temperature for 20 minutes. 25 μL of CellTiter-Glo (CTG) reagent (Promega Cat No. G7572) is added to each well, and the plate is shaken for 15 minutes at 300 rpm. Luminescence is read on an Envision plate reader.
A general note: In ATP-based viability assays light output follows the ATP content of the culture.

The next data set can be described thus: in vitro. The following applies: hamster.
Data set [2] is described as follows: Cytotoxicity (CC50) in SARS-CoV-2 IFA. Conditions: African green monkey; SARS-CoV2 IFA Assay; Vero cells. The format is cell-based. As for the experimental part:
SARS-CoV-2 IFA: In 384-well plates, Vero cells re seeded at an appropriate density and cultured at 37° C. and 5% CO2. Serially diluted (10 concentrations, in duplicates) test/reference compounds are added. Then the cells are infected with virus. The resulting cultures are incubated for an additional 1 day. The cells are then fixed and analyzed by immunofluorescence. EC50 and CC50 values are calculated with GraphPad Prism software.

The subject of data set [3] is influenza A strain California/07/09 (H1N1) pdm09 in MDCK cells. As to the kind of experiment: Influenza A IFA assay (CPE inhibition, neutral red). The format is cell-based. The following applies: Influenza A virus.
In data set [4] the target is T1, PIKFYVE (Homo sapiens (Human), UniProt Q9Y2I7). As to the kind of experiment: ADP-GLO Kinase Assay, PIKFYVE inhibitory activity. The format is biochemical. The following applies: substrate PI3P 10,000 nM. Here is the method:
(§3) Briefly, 4× compound solution and 4×ATP solution are prepared with assay buffer (50 mM MOPS, 1 mM DTT, pH7.2). 4× Substrate solution and 4× kinase/Metal solution are prepared with MOPS based buffer containing individual kinase specific additives. Then, […] of 4× compound solution, 5 μL of 4× Substrate solution, 5 μL of 4×ATP solution, and 5 μL of 4× kinase/Metal solution are mixed and incubated in a well of polystyrene 384 well black microplate for 1 hour at room temperature. Next, 20 μL of ADP-Glo™ Reagent (Promega) is added to the well, and incubated for over 40 minutes. 40 μL of Kinase Detection Reagent (Promega) is added to the well, and incubated for over 40 minutes. The kinase reaction is evaluated by the endpoint luminescence of the well.
For measurement of PIKFYVE activity, the substrate is PI3P at 10,000 nM concentration, using AG-182 as a positive control. The metal used is magnesium at 5 mM concentration.

The subject of data set [5] is JJN3 (multiple myeloma) cells. As to the kind of experiment: Anti-proliferative assay (CellTiter-Glo), JJN3. The following applies: Homo sapiens, JJN-3, 144 h, six days incubation. The format is cell-based. Here is the method: as §1, §2
Data set [6] in a line: Cytotoxicity (CC50) in Influenza A assay. The format is cell-based. Conditions: dog; Influenza A IFA Assay; MDCK cells. As for the experimental part: Influenza A IFA: Test compounds are solubilized in DMSO to prepare 20 mg/mL stock solutions. Compounds are then serially diluted using eight half-log dilutions in test media so that the starting (high) test concentration is 100 μg/mL. Each dilution is added to 5 wells of a 96-well plate with 80-100% confluent MDCK cells. Three wells of each dilution are infected with virus (strain influenza A strain California/07/09 (H1N1) pdm09), and two wells remain uninfected as toxicity controls. As virus controls, six wells are infected but untreated, and as cell controls, six wells are uninfected and untreated. Each virus is prepared to achieve an MOI (multiplicity of infection) of 0.001. A positive control compound is tested in parallel. Plates are incubated at 37° C. under 5% CO2 atmosphere. On day 3 post-infection (once untreated virus control cells reached maximum cytopathic effect, CPE), plates are stained with neutral red dye for 2 hours. Supernatant dye is removed and the wells are rinsed with PBS. The incorporated dye is extracted using 50:50 Sorensen citrate buffer/ethanol for at least 30 minutes, and the optical density is read at […] on a spectrophotometer. […] The selectivity index (SI) is calculated as CC50 divided by EC50. […]

In data set [7] the test system is PIK3CA, PIP4K2A, PIP4K2B, PIP4K1A, PIP4K1B, PIP4K1C, PIP5KL1. As to the kind of experiment: Comparative Kinase Assays (selectivity versus other lipid kinases). The format is biochemical. Here is the method: as §3
To determine whether the compounds are selective, the assay is repeated using appropriate substrates for different test enzymes:
The compounds of Examples 1, 3 and 6 are tested against these enzymes: […]

Another data set deals with SARS-CoV-2 in Vero cells. As to the kind of experiment: SARS-CoV-2 immunofluorescence assay (IFA). The format is cell-based. The following applies: Severe acute respiratory syndrome coronavirus 2, SARS-CoV2 IFA Assay.
Data set [8] concerns SARS-CoV-2 spike pseudovirus in BHK21/hACE2 cells. As to the kind of experiment: microbe, parasite or virus in culture. The format is cell-based. The following applies: Severe acute respiratory syndrome coronavirus 2, BHK-21.
The target of data set [9] is T1, PIKFYVE. As to the kind of experiment: KINOMEScan Kinase Assay, PIKFYVE binding.

A word on the IC50: it is the midpoint of a concentration-inhibition curve. Usually EC50 stands for the midpoint of the concentration-response curve. Low readings indicate a more potent agent, high ones a less potent agent. A word on the Kd: it is the concentration at which binding is half-saturated. Read a low Kd as tighter binding.

T1 sequence (Q9Y2I7 whole entry): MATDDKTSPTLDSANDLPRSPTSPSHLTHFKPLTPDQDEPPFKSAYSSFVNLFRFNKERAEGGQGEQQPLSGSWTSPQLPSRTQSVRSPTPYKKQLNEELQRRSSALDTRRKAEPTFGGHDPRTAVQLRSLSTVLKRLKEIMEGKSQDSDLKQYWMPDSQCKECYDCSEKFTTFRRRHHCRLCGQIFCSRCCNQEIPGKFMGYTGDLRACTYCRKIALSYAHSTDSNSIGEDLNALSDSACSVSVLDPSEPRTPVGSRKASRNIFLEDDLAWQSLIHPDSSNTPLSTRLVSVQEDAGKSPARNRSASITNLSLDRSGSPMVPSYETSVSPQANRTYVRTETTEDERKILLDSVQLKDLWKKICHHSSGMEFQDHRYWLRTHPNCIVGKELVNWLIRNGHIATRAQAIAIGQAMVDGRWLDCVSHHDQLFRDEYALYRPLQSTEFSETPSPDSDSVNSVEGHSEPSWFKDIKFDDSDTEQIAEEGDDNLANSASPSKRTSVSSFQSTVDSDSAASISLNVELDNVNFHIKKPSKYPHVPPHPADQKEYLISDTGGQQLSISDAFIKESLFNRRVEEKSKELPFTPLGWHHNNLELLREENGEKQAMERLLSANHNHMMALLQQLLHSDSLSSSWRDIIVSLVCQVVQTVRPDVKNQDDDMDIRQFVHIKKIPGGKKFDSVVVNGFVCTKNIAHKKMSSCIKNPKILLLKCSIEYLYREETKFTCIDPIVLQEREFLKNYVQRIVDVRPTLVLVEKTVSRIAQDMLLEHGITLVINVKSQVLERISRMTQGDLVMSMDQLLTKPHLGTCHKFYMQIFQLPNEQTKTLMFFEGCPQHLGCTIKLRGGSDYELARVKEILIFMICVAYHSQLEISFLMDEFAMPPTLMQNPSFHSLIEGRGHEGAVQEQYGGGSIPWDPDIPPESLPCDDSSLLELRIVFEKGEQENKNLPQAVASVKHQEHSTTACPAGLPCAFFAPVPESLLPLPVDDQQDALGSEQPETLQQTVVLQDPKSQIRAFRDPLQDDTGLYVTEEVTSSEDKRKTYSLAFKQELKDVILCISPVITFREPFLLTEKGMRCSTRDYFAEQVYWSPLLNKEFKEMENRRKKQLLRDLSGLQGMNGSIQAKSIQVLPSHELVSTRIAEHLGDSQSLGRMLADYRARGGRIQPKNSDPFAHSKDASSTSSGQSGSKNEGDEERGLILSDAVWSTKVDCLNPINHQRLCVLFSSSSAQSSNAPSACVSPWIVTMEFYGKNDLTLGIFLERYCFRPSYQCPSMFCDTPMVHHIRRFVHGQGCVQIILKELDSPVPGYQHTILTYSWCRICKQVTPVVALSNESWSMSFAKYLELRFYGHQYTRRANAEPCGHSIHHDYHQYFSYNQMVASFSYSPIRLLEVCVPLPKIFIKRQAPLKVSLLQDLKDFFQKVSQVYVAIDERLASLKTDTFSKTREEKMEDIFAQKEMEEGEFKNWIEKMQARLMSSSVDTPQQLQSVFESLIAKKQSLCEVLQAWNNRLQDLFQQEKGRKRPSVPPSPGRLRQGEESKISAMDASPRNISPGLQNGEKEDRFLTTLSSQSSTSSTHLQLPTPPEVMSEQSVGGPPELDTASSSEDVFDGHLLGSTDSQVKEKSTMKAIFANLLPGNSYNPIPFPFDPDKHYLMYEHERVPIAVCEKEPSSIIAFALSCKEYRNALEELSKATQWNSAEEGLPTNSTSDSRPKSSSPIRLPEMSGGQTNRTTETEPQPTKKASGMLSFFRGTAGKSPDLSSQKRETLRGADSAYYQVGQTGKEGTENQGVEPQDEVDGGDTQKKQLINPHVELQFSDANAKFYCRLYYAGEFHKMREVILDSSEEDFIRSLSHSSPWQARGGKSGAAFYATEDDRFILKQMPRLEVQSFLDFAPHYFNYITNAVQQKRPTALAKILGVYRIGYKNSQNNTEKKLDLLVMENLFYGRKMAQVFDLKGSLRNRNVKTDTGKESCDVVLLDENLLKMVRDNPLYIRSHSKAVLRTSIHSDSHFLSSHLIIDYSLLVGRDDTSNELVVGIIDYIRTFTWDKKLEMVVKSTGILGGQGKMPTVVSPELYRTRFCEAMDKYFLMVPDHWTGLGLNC

With `Cc1cccc(-c2ccn(-c3cc(N4CCOCC4)n4nc(-c5ccncc5)cc4n3)n2)c1` [Ex. 1], the IC50 is 100 to 1000 nM in [1], < 50 nM on PIKFYVE [4] and < 100 nM in data set [5]. The CC50 in “in vitro” was 5000 to 10000 nM; in data set [6], > 20000 nM. In addition, the CC50 at 1 day in [2] was > 20000 nM. The EC50 in [3] was 1000 to 5000 nM; with SARS-CoV-2 in Vero cells, 100 to 1000 nM; in data set [8], < 10 nM. Besides, the “Fold Selectivity for PIKFYVE” value in [7] was >100-fold. Moreover, at PIKFYVE [9], the Kd was < 1 nM.

In the case of `COc1cccc(-c2ccn(-c3cc(N4CCOCC4)n4nc(-c5ccncc5)cc4n3)n2)c1` [Ex. 6], the IC50 is 100 to 1000 nM in data set [1], < 50 nM against PIKFYVE [4] and < 100 nM in [5]. Also, in the data set “in vitro”, the CC50 lay within 5000 to 10000 nM. In addition, in [7], the “Fold Selectivity for PIKFYVE” value was >200-fold. Also, the EC50 in data set [8] was < 10 nM. Besides, the Kd on PIKFYVE [9] was < 1 nM.

Source of the values: patent US20240018151A1, “NOVEL INHIBITORS OF PIKFYVE AND METHODS USING SAME” (priority 2020, published 2024).
